Test results: ChEMBL document CHEMBL4184302 (Bioorg Med Chem Lett, 2018)
Calls of active or inactive are those of the source. The calls are words filed in the database; no cut-off is given here.

Experiments:
[1] = system: Bacteria; experiment: Reversible inhibition of bacterial N-terminal His6-tagged VIM2 (27 to 266 residues) expressed in Escherichia coli BL21 DE3 pLysS cells at 11 uM using FC-5 as substrate pretreated for 30 mins followed by substrate addition by jump-dilution method
[2] = Inhibition of bacterial N-terminal His6-tagged VIM2 (27 to 266 residues) expressed in Escherichia coli BL21 DE3 pLysS cells using FC-5 as substrate pretreated for 10 mins followed by substrate addition by fluorescence assay; design: species or system Bacteria
[3] = Inhibition of bacterial N-terminal His6-tagged NDM1 expressed in Escherichia coli BL21 DE3 pLysS cells using FC-5 as substrate pretreated for 10 mins followed by substrate addition measured every 60 secs by fluorescence assay; design: species or system Bacteria
[4] = Inhibition of bacterial N-terminal His6-tagged VIM2 (27 to 266 residues) expressed in Escherichia coli BL21 DE3 pLysS cells using FC-5 as substrate pretreated for 10 mins followed by substrate addition measured every 60 secs by fluorescence assay; design: species or system Bacteria
[5] = Inhibition of bacterial N-terminal His6-tagged TEM1 expressed in Escherichia coli BL21 DE3 pLysS cells using FC-5 as substrate pretreated for 10 mins followed by substrate addition measured every 60 secs by fluorescence assay; design: species or system Bacteria
[6] = system: Escherichia coli; experiment: Potentiation of meropenem-induced antimicrobial activity against Escherichia coli BL21(DE3) assessed as meropenem MIC at 50 uM measured after 16 to 20 hrs by microdilution broth method (reference value: <0.125 mg/L); assay type: functional
[7] = system: Escherichia coli; experiment: Potentiation of meropenem-induced antimicrobial activity against Escherichia coli BL21(DE3) harboring VIM-2 assessed as meropenem MIC at 25 uM measured after 16 to 20 hrs by microdilution broth method (reference value: 16 mg/L); assay type: functional
[8] = system: Escherichia coli; experiment: Potentiation of meropenem-induced antimicrobial activity against Escherichia coli BL21(DE3) assessed as meropenem MIC at 10 uM measured after 16 to 20 hrs by microdilution broth method (reference value: <0.125 mg/L); assay type: functional
[9] = system: Escherichia coli; experiment: Potentiation of meropenem-induced antimicrobial activity against Escherichia coli BL21(DE3) assessed as meropenem MIC at 25 uM measured after 16 to 20 hrs by microdilution broth method (reference value: <0.125 mg/L); assay type: functional
[10] = system: Escherichia coli; experiment: Potentiation of meropenem-induced antimicrobial activity against Escherichia coli BL21(DE3) assessed as meropenem MIC at 100 uM measured after 16 to 20 hrs by microdilution broth method (reference value: <0.125 mg/L); assay type: functional
[11] = system: Escherichia coli; experiment: Potentiation of meropenem-induced antimicrobial activity against Escherichia coli BL21(DE3) harboring VIM-2 assessed as meropenem MIC at 50 uM measured after 16 to 20 hrs by microdilution broth method (reference value: 16 mg/L); assay type: functional
[12] = system: Escherichia coli; experiment: Potentiation of meropenem-induced antimicrobial activity against Escherichia coli BL21(DE3) harboring VIM-2 assessed as meropenem MIC at 10 uM measured after 16 to 20 hrs by microdilution broth method (reference value: 16 mg/L); assay type: functional
[13] = system: Escherichia coli; experiment: Potentiation of meropenem-induced antimicrobial activity against Escherichia coli BL21(DE3) harboring VIM-2 assessed as meropenem MIC at 100 uM measured after 16 to 20 hrs by microdilution broth method (reference value: 16 mg/L); assay type: functional
[14] = system: Bacteria; experiment: Reversible inhibition of bacterial N-terminal His6-tagged VIM2 (27 to 266 residues) expressed in Escherichia coli BL21 DE3 pLysS cells at 415 uM using FC-5 as substrate pretreated for 30 mins followed by substrate addition by jump-dilution method
[15] = system: Bacteria; experiment: Competitive inhibition of bacterial N-terminal His6-tagged VIM2 (27 to 266 residues) expressed in Escherichia coli BL21 DE3 pLysS cells using varying levels of FC-5 as substrate by fluorescence assay
[16] = Binding affinity to bacterial N-terminal His6-tagged VIM2 (27 to 266 residues) expressed in Escherichia coli BL21 DE3 pLysS cells by isothermal calorimetric method; design: species or system Bacteria

| IC50 [2] [µM] | SMILES | inhibition [1] | IC50 [3] [µM] | pIC50 [3] | IC50 [4] [µM] | pIC50 [4] | IC50 [5] [µM] | pIC50 [5] | MIC [6] [µg/mL] | MIC [7] [µg/mL] | MIC [8] [µg/mL] | MIC [9] [µg/mL] | MIC [10] [µg/mL] | MIC [11] [µg/mL] | MIC [12] [µg/mL] | MIC [13] [µg/mL] | inhibition [14] | inhibition [15] | Kd [16] [µM] |
| --- | --- | --- | --- | --- | --- | --- | --- | --- | --- | --- | --- | --- | --- | --- | --- | --- | --- | --- | --- |
| 2.47 | C[C@H](CS)C(=O)N1CCC[C@H]1C(=O)O [CAPTOPRIL] | Active | – | – | – | – | – | – | – | – | – | – | – | – | – | – | – | – | – |
| – | O=C(O)/C=C/c1ccc(O)c(O)c1 [CAFFEIC ACID] | – | > 600 | < 3.2 | > 600 | < 3.2 | > 600 | < 3.2 | – | – | – | – | – | – | – | – | – | – | – |
| – | O=C(/C=C/c1ccc(O)c(O)c1/C=C/c1ccc(O)c(O)c1)O[C@H](Cc1ccc(O)c(O)c1)C(=O)O [SALVIANOLIC ACID A] | – | 160 | 3.75 to 3.79 | 27.2 | 4.57 | 34.3 | 4.46 | < 0.125 | 16 | < 0.125 | < 0.125 | < 0.125 | 4 | 16 | 4 | – | – | – |
| – | O=C(O)[C@H](O)Cc1ccc(O)c(O)c1 | – | > 600 | < 3.2 | > 600 | < 3.2 | 189 | 3.72 | – | – | – | – | – | – | – | – | – | – | – |
| – | O=C(/C=C/c1ccc(O)c(O)c1)O[C@H](Cc1ccc(O)c(O)c1)C(=O)O [ROSMARINIC ACID] | – | > 600 | < 3.2 | 41.5 | 4.38 | > 600 | < 3.2 | < 0.125 | 16 | < 0.125 | < 0.125 | < 0.125 | 8 | 16 | 8 | Active | Dose-dependent effect | 10.2 |
